Results on one compound are retold here after US10166225B2, “Method for treating osteoporosis” (Exelixis, Inc., priority 2011, dated 2019).

Structures are written as SMILES. Read-outs that look alike come from different tables or passages of the source.

The assay concerns KS483 mouse osteoprogenitor cells. The experiment in a line: Osteoblast activity assay (PINP at day 11, calcium deposition at day 13). Particulars: for activity at 0.004 µM / activity at 0.012 µM / activity at 0.037 µM / activity at 0.11 µM / activity at 0.33 µM / activity at 1 µM / activity at 3 µM: Mus musculus, Osteoblast; for activity at 0.004 µM: 0.004 μM Compound 1; for activity at 0.012 µM: 0.012 μM Compound 1; for activity at 0.037 µM: 0.037 μM Compound 1; for activity at 0.11 µM: 0.11 μM Compound 1; for activity at 0.33 µM: 0.33 μM Compound 1; for activity at 1 µM: 1.0 μM Compound 1; for activity at 3 µM: 3.0 μM Compound 1. The format is cell-based. On the procedure: The effects on osteoblasts were studied using KS483 mouse osteoprogenitor cells that can be induced to differentiate into bone-forming osteoblasts. […] In the osteoblast differentiation assay, the cells were cultured for 8 days, after which the formed mature osteoblasts were quantitated by measuring the amount of intracellular alkaline phosphatase (ALP) activity. […] A culture system was established that can be used as an in vitro model for studying the effects of anabolic and estrogen-like compounds on osteoblast differentiation and activity. In this culture system mouse KS483 cells first proliferate and then differentiate into osteoblasts capable of forming mineralized bone nodules in the presence of ascorbic acid and ß-glycerophosphate (Fagerlund et al. 2009). The test and reference compounds are added into the cell cultures concomitantly with the medium change, and their effects on the differentiation and activity of osteoblasts are determined. Cellular ALP, a marker of osteoblast differentiation, is determined from the cell lysates as described earlier (Lowry et al. 1954). Secreted PINP, a marker of organic bone matrix formation, is determined from the culture medium using a commercially available method (Rat/Mouse PINP EIA, IDS Ltd, Boldon, UK). Calcium deposition, an index of inorganic bone matrix formation, is measured using a commercially available calcium assay (Roche Diagnostics). Mouse KS483 cells were cultured in T-75 tissue culture flasks in aMEM supplemented with 10% charcoal-stripped fetal bovine serum until 80-90% confluence. The cells were incubated in a CO2 incubator in humidified atmosphere of 95% air and 5% carbon dioxide at 37° C. After reaching 80-90% confluence, subcultures were prepared. Cells were removed from the flasks with trypsin treatment and counted. For induction of the maturation of osteoblasts and bone formation, the immature osteoblastic cells were plated in type I collagen-coated 96-well plates. The cells were cultured for 13 days with a supplement of ascorbic acid (50 μg/ml) and ß-glycerophosphate (5 mM), and half of the media was changed every 3-4 days. The test compound and control substance (E2) were added in the beginning of the culture period and when the medium was changed. Secreted PINP was measured from the culture medium at day 11 as a marker of organic bone matrix formation. The cultures were stopped at day 13 by removing the culture media from the wells and adding hydrochloric acid. Calcium deposited into the formed bone matrix was quantitated by using VICTOR2™ Multilabel Counter (PerkinElmer, Waltham, Mass., USA).

Where [1] appears, read: 0.004, 0.012, 0.037 and 0.11 μM.
Setting [2] is: 264 h, read-out: PINP Activity at Day 11, Percent Activity (%) Compared to BL.
Setting [3] is: 312 h, read-out: Calcium Deposition at Day 13, Percent Activity (%) Compared to BL.

As for `COc1cc2nccc(Oc3ccc(NC(=O)C4(C(=O)Nc5ccc(F)cc5)CC4)cc3)c2cc1OC` [Compound 1, N-(4-{[6,7-bis(methyloxy)quinolin-4-yl]oxy}phenyl)-N′-(4-fluorophenyl)cyclopropane-1,1-dicarboxamide], under setting [1], the “bone forming activity of osteoblasts” value is given as “dose-dependent stimulation” and the calcium values result was “increased”. Also, the PINP values entry (0.012 and 0.037 μM) is “increased”. In addition, where the note is “0.33, 1.0 and 3.0 μM”, the PINP values result is “decreased”, the “bone forming activity of osteoblasts” value was “inhibitory effects” and the calcium values result is recorded as “decreased”. Also, under setting [2], the activity at 0.004 µM was determined as 117%, the activity at 0.012 µM turned out to be 122%, the activity at 0.037 µM was 135% and the activity at 0.11 µM was 101%. Besides, under setting [2], the activity at 0.33 µM was 73%, the activity at 1 µM came out at 42% and the activity at 3 µM is 21%. In addition, under setting [3], the activity at 0.004 µM turned out to be 145%, the activity at 0.012 µM is 167%, the activity at 0.037 µM was found to be 180% and the activity at 0.11 µM amounted to 144%. For the same compound, under setting [3], the activity at 0.33 µM turned out to be 59%, the activity at 1 µM worked out at 12% and the activity at 3 µM came to 4%.
